Literature values as cited in patent publication US6384213B1, “Process for preparing a pure, pharmacopoeial grade amorphous form of cefuroxime axetil” (Ranbaxy Laboratories Limited, priority 1998, dated 2002).

What was measured:
[1] = amorphous form essentially free from crystalline material, purity at least 95%
[2] = amorphous form essentially free from crystalline material, purity at least 95%, compared with crystalline form

CO/N=C(\C(=O)N[C@@H]1C(=O)N2C(C(=O)OC(C)OC(C)=O)=C(COC(N)=O)CS[C@H]12)c1ccco1 (some centres unmarked) [cefuroxime axetil in amorphous form, cefuroxime axetil]
chemical stability [1]: adequate chemical stability
bioavailability [2]: higher bioavailability than the crystalline form
